Results: PubChem BioAssay AID248 (DTP/NCI, 2004)
Inconclusive results and toxic doses are left out. No stated cut-off is given here; in the data, active means T/C of 150% or more; inactive means T/C below 125%.

System: L1210 leukemia ip in BDF1 mice, survival T/C
Test: NCI In Vivo Anticancer Drug Screen. Data for tumor model L1210 Leukemia (intraperitoneal) in B6D2F1 (BDF1) mice
Settings: endpoint: mean survival time, higher = longer survival
Outline: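 Mice bearing the transplanted tumor received compound or vehicle. Survival of the treated group was divided by that of the vehicle-treated control group to give the ratio.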

[1] = dose: 100.0 mg/kg/injection, schedule: Q01DX009 (ip), vehicle: Klucel (hydroxypropylcellulose) (HPC)
[2] = dose: 100.0 mg/kg/injection, schedule: Q04DX003 (ip), vehicle: Klucel (hydroxypropylcellulose) (HPC)
[3] = dose: 200.0 mg/kg/injection, schedule: Q01DX009 (ip), vehicle: Klucel (hydroxypropylcellulose) (HPC)
[4] = dose: 200.0 mg/kg/injection, schedule: Q04DX003 (ip), vehicle: Klucel (hydroxypropylcellulose) (HPC)
[5] = dose: 400.0 mg/kg/injection, schedule: Q01DX009 (ip), vehicle: Klucel (hydroxypropylcellulose) (HPC)
[6] = dose: 400.0 mg/kg/injection, schedule: Q04DX003 (ip), vehicle: Klucel (hydroxypropylcellulose) (HPC)
[7] = dose: 100.0 mg/kg/injection, schedule: Q04DX003 (ip), vehicle: saline with Tween-80
[8] = dose: 200.0 mg/kg/injection, schedule: Q04DX003 (ip), vehicle: saline with Tween-80
[9] = dose: 400.0 mg/kg/injection, schedule: Q04DX003 (ip), vehicle: saline with Tween-80
[10] = dose: 100.0 mg/kg/injection, schedule: Q01DX009 (ip), vehicle: saline with Tween-80
[11] = dose: 200.0 mg/kg/injection, schedule: Q01DX009 (ip), vehicle: saline with Tween-80
[12] = dose: 400.0 mg/kg/injection, schedule: Q01DX009 (ip), vehicle: saline with Tween-80
[13] = dose: 50.0 mg/kg/injection, schedule: Q01DX009 (ip), vehicle: saline
[14] = dose: 100.0 mg/kg/injection, schedule: Q01DX009 (ip), vehicle: saline
[15] = dose: 200.0 mg/kg/injection, schedule: Q01DX009 (ip), vehicle: saline

Measured: T/C

CC(O)COc1ccc(OCc2ccccc2)cc1 (centres undefined)
inactive: [1] 98 % of control | [2] 106 % of control | [3] 95 % of control | [4] 100 % of control | [5] 97 % of control | [6] 92 % of control

Cc1nn(C)c(C#N)c1[N+](=O)[O-]
inactive: [2] 98 % of control | [4] 100 % of control

Nc1ncc2c(n1)SCC2
inactive: dose: 5.0 mg/kg/injection, schedule: Q01DX001 (ip), vehicle: saline 104 % of control | dose: 10.0 mg/kg/injection, schedule: Q01DX001 (ip), vehicle: saline 104 % of control | dose: 20.0 mg/kg/injection, schedule: Q01DX001 (ip), vehicle: saline 102 % of control | dose: 40.0 mg/kg/injection, schedule: Q01DX001 (ip), vehicle: saline 102 % of control | dose: 80.0 mg/kg/injection, schedule: Q01DX001 (ip), vehicle: saline 116 % of control

CC12CCC(F)(CC1)CC2=O
inactive: dose: 100.0 mg/kg/injection, schedule: Q04DX002 (ip), vehicle: saline 98 % of control | dose: 200.0 mg/kg/injection, schedule: Q04DX002 (ip), vehicle: saline 98 % of control | dose: 400.0 mg/kg/injection, schedule: Q04DX002 (ip), vehicle: saline 102 % of control

Cn1c(NN)cc(=O)n(C)c1=O
inactive: dose: 75.0 mg/kg/injection, schedule: Q04DX003 (ip), vehicle: saline 107 % of control | dose: 150.0 mg/kg/injection, schedule: Q04DX003 (ip), vehicle: saline 94 % of control | dose: 300.0 mg/kg/injection, schedule: Q04DX003 (ip), vehicle: saline 104 % of control

O=C1NC(=O)C(Cc2ccccc2)(Cc2ccccc2)C(=O)N1Cc1ccccc1
inactive: dose: 100.0 mg/kg/injection, schedule: Q01DX001 (ip), vehicle: carboxymethylcellulose (CMC) 90 % of control | dose: 200.0 mg/kg/injection, schedule: Q01DX001 (ip), vehicle: carboxymethylcellulose (CMC) 90 % of control | dose: 400.0 mg/kg/injection, schedule: Q01DX001 (ip), vehicle: carboxymethylcellulose (CMC) 98 % of control

CCOC(=O)c1ccc(NCCCc2c(C)nc(N)[nH]c2=O)cc1
inactive: dose: 75.0 mg/kg/injection, schedule: Q01DX001 (ip), vehicle: saline with Tween-80 92 % of control | dose: 150.0 mg/kg/injection, schedule: Q01DX001 (ip), vehicle: saline with Tween-80 87 % of control | dose: 300.0 mg/kg/injection, schedule: Q01DX001 (ip), vehicle: saline with Tween-80 90 % of control

COC(=O)C12C=CC(C1)n1c(=O)n(-c3ccccc3)c(=O)n12 (centres undefined)
inactive: [7] 97 % of control | [8] 105 % of control | [9] 103 % of control

C[Si](C)(C)c1c(F)c(F)c(F)c(F)c1F
inactive: [10] 102 % of control | [11] 94 % of control | [12] 97 % of control

O=S1(=O)CC(S(=O)(=O)O)C(S(=O)(=O)O)C1 (centres undefined)
inactive: [13] 110 % of control | [14] 103 % of control | [15] 99 % of control | dose: 400.0 mg/kg/injection, schedule: Q01DX009 (ip), vehicle: saline 93 % of control

O=C(O)C(Br)Cc1cnc[nH]1 (centres undefined)
inactive: [13] 106 % of control | [14] 106 % of control | [15] 98 % of control

CCOC(=O)C(Cc1ccc(Cl)cc1)(Cc1ccc(Cl)cc1)C(=O)OCC
inactive: [1] 100 % of control | [2] 92 % of control | [3] 98 % of control | [4] 92 % of control | [5] 102 % of control | [6] 94 % of control

COc1ccc2c(c1)c(CC(=O)O)c(C)n2C(=O)c1ccc(Cl)cc1
inactive: dose: 50.0 mg/kg/injection, schedule: Q01DX001 (ip), vehicle: saline 88 % of control | dose: 100.0 mg/kg/injection, schedule: Q01DX001 (ip), vehicle: saline 95 % of control | dose: 200.0 mg/kg/injection, schedule: Q01DX001 (ip), vehicle: saline 95 % of control | dose: 400.0 mg/kg/injection, schedule: Q01DX001 (ip), vehicle: saline 93 % of control

CCC(N)c1ccc2c3c(cccc13)CC2 (centres undefined)
inactive: [10] 88 % of control | [7] 93 % of control | [11] 90 % of control | [8] 90 % of control | [12] 93 % of control | [9] 90 % of control
